{"source": "patent US20230013402A1", "about": "“REGENERATING FUNCTIONS AND PHENOTYPES OF CONNECTIVE TISSUE THROUGH NPAS2 SUPPRESSION” (The Regents of the University of California, priority 2019, published 2023)", "key": {"skin split wound": {"tested_on": "skin split wound", "assay": "Skin split (linear) wound/scar model with suture", "assay_type": "in vivo, mouse", "conditions": "Dwn1 in 10% DMSO with suture vs suture only and suture plus vehicle", "description": "To test in vivo wound healing using Dwn1, a 1.5 by 10 millimeter skin split model was created with a suture in the middle and three groups were designed. This model is similar to a clinical situation of a skin wound. When the skin was sutured only, visible wound healing was not effective. A suture and vehicle control with 10% DMSO, in the clinical observation, wound healing was visibly better than suture only. It is hypothesized that the moisture of vehicle may improve wound healing.\nMasson trichrome staining was used to stain collagen deposition blue. Thick blue collagen deposition was found not only in granulation tissue but also in the peripheral wound. The histological staining for the vehicle control with 10% DMSO, was similar to control. Thick collagen deposition was observed.\nVertical wounds (10×1.5 mm) were made on both left and right sides of the back of a mouse with a double-bladed scalpel. One ligation was performed at the center of the wound with 5-0 nylon suture. (FIG. 33A) Visual Analogue Scale (VAS) was scored everyday postoperatively until postoperative day 7 using gross images of the wounds/scars (FIG. 33A), and postoperative gross images of the wounds/scars were measured with a ruler. […] (FIG. 33D) Scar Index was evaluated using HE stained slices. (FIG. 33E) The % area of fibrous tissue was evaluated using MT stained slices. […]"}, "[1]": {"tested_on": "ligature-induced periodontitis", "assay": "Modified mouse ligature-induced periodontitis model (ligature removed at Day 14, evaluation at D28)", "assay_type": "in vivo", "conditions": "topical to palatal gingiva once a week, listed as Dwn1", "description": "FIGS. 12A-12H show the effect of Dwn1 in the modified ligature-induced periodontitis in mice.\nThe selected highest hit compound Dwn1 (Reserpine) of Example 2 was applied to the well established ligature-induced periodontitis model with modification. After periodontitis was established at Day 14, the ligature was revoved from mouse molar mimicking non-invasive periodontits treatment: scaling and root planing (SRP) (FIGS. 12A-12D). Dwn1 was formulated in ABR LLC's propritery trans-epithelial deformable nano-scale vesicle (DNV) (57) and topically adminstered to the palatal gingival tissue once a week (FIG. 12E). […] The in vivo regenerative efficacy of Dwn1 (Reserpine) was strongly indicated.\nFrom FDA Approved Drug Library (1120 compounds) and LOPAC Library (1280 compounds), a list of chemical compounds that modulated Npas2-LacZ expression was identified. […] Dwn1 was formulated for topical application to palatal gingiva. After 14 days of periodontitis induction, the ligature was removed and Dwn1 was topically applied to the palatal gingiva once a week (FIG. 16A)."}}, "note": "“Also recorded” adds a separate entry of the source.", "data": [{"smiles": "COC(=O)[C@H]1[C@H]2C[C@@H]3c4[nH]c5cc(OC)ccc5c4CCN3C[C@H]2C[C@@H](OC(=O)c2cc(OC)c(OC)c(OC)c2)[C@@H]1OC", "note": "[Reserpine]", "values": [{"measurement": "Collagen deposition (Masson trichrome staining)", "setting": "skin split wound", "value": "decreased excessive collage deposition; also recorded: very small area of collagen deposition"}, {"measurement": "Split wound healing / scarring", "setting": "skin split wound", "value": "improved split wound healing with minimal scarring; also recorded: best wound healing"}, {"measurement": "Gingival epithelium / gingival defect", "setting": "[1]", "value": "normalized gingival epithelium; also recorded: less visible"}, {"measurement": "Alveolar bone regeneration (microCT bone height)", "setting": "[1]; palatal side", "value": "increased bone height; also recorded: Alveolar bone regeneration was demonstrated; also recorded: alveolar bone loss was attenuated; also recorded: significant alveolar bone regeneration"}, {"measurement": "Gingival/periodontal collagen with Sharpey's fibers", "setting": "[1]; picrosirius red", "value": "gingival/PDL connective tissue reconstruction; also recorded: appeared to be reconstructed; also recorded: normalized Sirius red stained gingival collagen arrangement; also recorded: collagen fibers were reorganized"}]}]}
